# Literature values, collected in patent publication US9643990B2, “Non-caloric sweeteners and methods for synthesizing” (Conagen Inc., priority 2014, dated 2017).
# Conditions: background statement, no method given
row,Molecule,sweetness relative to sucrose
1,"C=C1C[C@@]23CC[C@H]4[C@@](C)(CCC[C@@]4(C)C(=O)O[C@@H]4O[C@H](CO)[C@@H](O)[C@H](O)[C@H]4O)[C@@H]2CC[C@]1(O[C@@H]1O[C@H](CO)[C@@H](O)[C@H](O)[C@H]1O[C@@H]1O[C@H](CO)[C@@H](O)[C@H](O)[C@H]1O)C3 [stevioside, Stevioside]",100-150 times sweeter than sucrose
2,Rebaudioside C,40-60 times sweeter than sucrose
3,Dulcoside A,about 30 times sweeter than sucrose
